What was measured:
Format in all cases: in vivo
Details in all cases: evaluated after 13 days
[1] = test system: Abutilon theophrasti (ABUTH); test: Pre-emergence herbicidal glasshouse test (Table B1)
Procedure, shortened: (§1)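 Application rate was 500 g/h unless otherwise indicated, as a spray prepared from acetone/water (50:50) containing 0.5% Tween 20. Treatment followed one day (pre-emergence) or 8 days (post-emergence) of glasshouse growth, and percentage plant damage was assessed 13 days later on a 1–5 scale.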

[2] = test system: Amaranthus retoflexus (AMARE); test: as above
Procedure, shortened: as §1

Setaria faberi (SETFA) [3] = test: as above
Procedure, shortened: as §1

[4] = test system: Ipomoea hederacea (IPOHE); test: as above
Procedure, shortened: as §1

[5] = test system: Echinochloa crus-galh (ECHCG); test: as above
Procedure, shortened: as §1

[6] = test system: Abutilon theophrasti (ABUTH); test: Post-emergence herbicidal glasshouse test (Table B1)
Procedure, shortened: as §1

[7] = test system: Amaranthus retoflexus (AMARE); test: as above
Procedure, shortened: as §1

Setaria faberi (SETFA) [8] = test: as above
Procedure, shortened: as §1

[9] = test system: Ipomoea hederacea (IPOHE); test: as above
Procedure, shortened: as §1

[10] = test system: Echinochloa crus-galh (ECHCG); test: as above
Procedure, shortened: as §1

Row | Compound | PRE Application ABUTH, percentage damage on five-point scale ([1]; applied at 500 g/h) | PRE Application AMARE, percentage damage on five-point scale ([2]; applied at 500 g/h) | PRE Application SETFA, percentage damage on five-point scale (Setaria faberi (SETFA) [3]; applied at 500 g/h) | PRE Application IPOHE, percentage damage on five-point scale ([4]; applied) | PRE Application ECHCG, percentage damage on five-point scale ([5]; applied at 500 g/h) | POST Application ABUTH, percentage damage on five-point scale ([6]; applied at 500 g/h) | POST Application AMARE, percentage damage on five-point scale ([7]; applied at 500 g/h) | POST Application SETFA, percentage damage on five-point scale (Setaria faberi (SETFA) [8]; applied at 500 g/h) | POST Application IPOHE, percentage damage on five-point scale ([9]; applied at 500 g/h) | POST Application ECHCG, percentage damage on five-point scale ([10]; applied at 500 g/h) | PRE Application ABUTH, percentage damage on five-point scale ([1]; applied at 125 g/ha) | PRE Application AMARE, percentage damage on five-point scale ([2]; applied at 125 g/ha) | PRE Application SETFA, percentage damage on five-point scale (Setaria faberi (SETFA) [3]; applied at 125 g/ha) | PRE Application IPOHE, percentage damage on five-point scale ([4]; applied at 125 g/ha) | PRE Application ECHCG, percentage damage on five-point scale ([5]; applied at 125 g/ha) | POST Application ABUTH, percentage damage on five-point scale ([6]; applied at 125 g/ha) | POST Application AMARE, percentage damage on five-point scale ([7]; applied at 125 g/ha) | POST Application SETFA, percentage damage on five-point scale (Setaria faberi (SETFA) [8]; applied at 125 g/ha) | POST Application IPOHE, percentage damage on five-point scale ([9]; applied at 125 g/ha) | POST Application ECHCG, percentage damage on five-point scale ([10]; applied at 125 g/ha)
1 | CCn1nnnc1NC(=O)c1ccc(OC(F)(F)F)c(NC(=O)COC)c1Cl [Compound 1.116] | 5 (5=80-100%) | 5 (5=80-100%) | 1 (1=0-19%) | 1 (1=0-19%) | 3 (3=40-59%) | 5 (5=80-100%) | 5 (5=80-100%) | 5 (5=80-100%) | 5 (5=80-100%) | 5 (5=80-100%) |  |  |  |  |  |  |  |  |  | 
2 | CCn1nnnc1NC(=O)c1ccc(OC(F)(F)F)c(NC(=O)C2CC2)c1Cl [Compound 1.117] | 5 (5=80-100%) | 5 (5=80-100%) | 4 (4=60-79%) | 4 (4=60-79%) | 5 (5=80-100%) | 5 (5=80-100%) | 5 (5=80-100%) | 5 (5=80-100%) | 5 (5=80-100%) | 5 (5=80-100%) |  |  |  |  |  |  |  |  |  | 
3 | CCn1nnnc1NC(=O)c1ccc(OC(F)(F)F)c(NC(=O)C(C)C)c1Cl [Compound 1.118] |  |  |  |  |  |  |  |  |  |  | 4 (4=60-79%) | 4 (4=60-79%) | 4 (4=60-79%) | 2 (2=20-39%) | 5 (5=80-100%) | 4 (4=60-79%) | 4 (4=60-79%) | 4 (4=60-79%) | 4 (4=60-79%) | 4 (4=60-79%)
4 | CCC(=O)Nc1c(OC(F)(F)F)ccc(C(=O)Nc2nnnn2CC)c1Cl [Compound 1.119] | 5 (5=80-100%) | 5 (5=80-100%) | 2 (2=20-39%) | 4 (4=60-79%) | 5 (5=80-100%) | 5 (5=80-100%) | 5 (5=80-100%) | 5 (5=80-100%) | 5 (5=80-100%) | 5 (5=80-100%) |  |  |  |  |  |  |  |  |  | 
5 | COCCC(=O)Nc1c(OC(F)(F)F)ccc(C(=O)Nc2nnnn2C)c1Cl [Compound 1.120] | 4 (4=60-79%) | 5 (5=80-100%) | 1 (1=0-19%) | 1 (1=0-19%) | 5 (5=80-100%) | 5 (5=80-100%) | 5 (5=80-100%) | 5 (5=80-100%) | 5 (5=80-100%) | 5 (5=80-100%) |  |  |  |  |  |  |  |  |  | 
6 | CCCC(=O)Nc1c(OC(F)(F)F)ccc(C(=O)Nc2nnnn2C)c1Cl [Compound 1.121] | 4 (4=60-79%) | 5 (5=80-100%) | 1 (1=0-19%) | 2 (2=20-39%) | 5 (5=80-100%) | 5 (5=80-100%) | 5 (5=80-100%) | 5 (5=80-100%) | 5 (5=80-100%) | 5 (5=80-100%) |  |  |  |  |  |  |  |  |  | 
7 | CCn1nnnc1NC(=O)c1ccc(OC(F)(F)F)c(NC(=O)C(F)F)c1Cl [Compound 1.122] |  |  |  |  |  |  |  |  |  |  | 3 (3=40-59%) | 5 (5=80-100%) | 3 (3=40-59%) | 1 (1=0-19%) | 4 (4=60-79%) | 4 (4=60-79%) | 5 (5=80-100%) | 3 (3=40-59%) | 2 (2=20-39%) | 4 (4=60-79%)
8 | CCn1nnnc1NC(=O)c1ccc(OC(F)(F)F)c(NC(=O)c2ccccc2OC)c1Cl [Compound 1.123] |  |  |  |  |  |  |  |  |  |  | 3 (3=40-59%) | 3 (3=40-59%) | 4 (4=60-79%) | 2 (2=20-39%) | 3 (3=40-59%) | 4 (4=60-79%) | 4 (4=60-79%) | 4 (4=60-79%) | 5 (5=80-100%) | 4 (4=60-79%)
9 | CC(C)C(=O)Nc1c(OC(F)(F)F)ccc(C(=O)Nc2nnnn2C)c1Cl [Compound 1.124] | 4 (4=60-79%) | 5 (5=80-100%) | 4 (4=60-79%) | 1 (1=0-19%) | 5 (5=80-100%) | 5 (5=80-100%) | 5 (5=80-100%) | 5 (5=80-100%) | 5 (5=80-100%) | 5 (5=80-100%) |  |  |  |  |  |  |  |  |  | 

Reference: patent US20230219904A1 (SYNGENTA CROP PROTECTION AG, priority 2020, published 2023)
